Assay results: patent KR20210110252A, “폴리펩티드를 포함하는 비알코올성 지방간 질환의 예방 또는 치료용 약학 조성물” (㈜ 디앤디파마텍, priority 2019, dated 2021)
Where no end group is shown, it is not given here. [ ]: non-standard residue; d: D form. Aib = CC(C)(N)C(=O)O

Assays:
[1] = biological target: GLP-1 수용체 (GLP-1 receptor) (Homo sapiens, UniProt P43220); settings: read-out: GLP-1의 수용체 EC50; HEK293/CRE-Luc cells with human GLP-1 receptor; 4 h at 37℃; luciferase reporter for cAMP
[2] = tested on: C57BL/6 마우스, high trans-fat diet NAFLD model; experiment: In vivo activity 2 and 3: NAFLD model, C57BL/6 mice on high trans-fat diet (40% fat, 20% fructose, 2% cholesterol) for about 16 weeks; set-up: species or system mouse; settings: 20 nmol/kg s.c. every third day for 4 weeks; also lower than liraglutide 53 nmol/kg daily
[3] = biological target: T1, 글루카곤 수용체(GCGR) (Homo sapiens, UniProt P47871); experiment: Glucagon receptor activity, cAMP Hunter eXpress GCGR CHO-K1 GPCR assay; assay type: cell-based; settings: CHO-K1 cells with human glucagon receptor; 30 min at 37℃; cAMP production
T1 construct: host or cells: CHO-K1

[4] = tested on: C57BL/6 마우스, high fat diet NAFLD model; experiment: In vivo activity 1: NAFLD model, C57BL/6 mice on 60% high fat diet for about 24 weeks; set-up: species or system mouse; settings: 20 nmol/kg s.c. every second day for 2 weeks; also lower than liraglutide 100 nmol/kg daily

T1 sequence (P47871 26-477): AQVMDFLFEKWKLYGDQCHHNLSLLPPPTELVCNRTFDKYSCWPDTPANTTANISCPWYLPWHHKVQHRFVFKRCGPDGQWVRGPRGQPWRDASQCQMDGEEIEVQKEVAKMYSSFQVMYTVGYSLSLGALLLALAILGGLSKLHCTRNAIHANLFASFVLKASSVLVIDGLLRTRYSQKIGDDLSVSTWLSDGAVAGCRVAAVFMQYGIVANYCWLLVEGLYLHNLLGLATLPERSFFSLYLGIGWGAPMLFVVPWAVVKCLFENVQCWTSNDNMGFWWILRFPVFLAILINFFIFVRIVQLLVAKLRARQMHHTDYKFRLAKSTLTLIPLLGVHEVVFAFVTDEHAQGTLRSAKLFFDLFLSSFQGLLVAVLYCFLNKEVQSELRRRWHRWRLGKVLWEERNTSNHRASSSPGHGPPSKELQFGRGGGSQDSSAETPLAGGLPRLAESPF
Sequence of GLP-1 수용체 (GLP-1 receptor) (P43220 24-463): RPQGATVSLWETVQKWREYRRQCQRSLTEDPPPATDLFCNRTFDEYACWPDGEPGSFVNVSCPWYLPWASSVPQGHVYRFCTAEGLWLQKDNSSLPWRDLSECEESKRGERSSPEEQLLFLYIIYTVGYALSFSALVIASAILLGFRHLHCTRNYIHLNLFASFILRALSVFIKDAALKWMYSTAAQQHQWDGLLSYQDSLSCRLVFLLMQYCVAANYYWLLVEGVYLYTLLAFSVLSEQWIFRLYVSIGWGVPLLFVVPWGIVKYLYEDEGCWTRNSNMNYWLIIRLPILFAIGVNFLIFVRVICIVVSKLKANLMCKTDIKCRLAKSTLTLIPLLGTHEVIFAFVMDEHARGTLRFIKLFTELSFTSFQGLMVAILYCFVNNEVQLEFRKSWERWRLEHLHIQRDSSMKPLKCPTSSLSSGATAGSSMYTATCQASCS

## 실시예 2: 서열번호 2 H(Aib)QGTFTSDYSKYLDEQAAKEFVQWLMNTC polypeptide conjugated to 3중 가지형 mPEG-MAL(MW: 50 kDa) (H[Aib]QGTFTSDYSKYLDEQAAKEFVQWLMNTC; numbers in words are those of the source; also: conjugated to 3-branched mPEG-MAL 50 kDa, site not given here)
[1]
  EC50: 2.12 nM
[2]
  Hepatic triglyceride vs vehicle group (Fig. 8): 유의적으로 감소
  Liver steatosis, H&E and oil-red-O histology vs vehicle group (Fig. 9): 현저하게 감소
  Liver weight vs vehicle group (Fig. 7): 유의적으로 감소
  NAFLD activity score (NAS) vs vehicle group (Fig. 10): 유의적으로 감소
  Serum cholesterol level vs vehicle group (Fig. 6): 유의적으로 감소
[3]
  EC50: 47 nM
[4]
  Liver steatosis, H&E histology vs PBS-treated group (Fig. 5): 현저하게 감소
  Liver weight vs PBS-treated group (Fig. 4): 유의적으로 감소
  Serum cholesterol level vs PBS-treated group (Fig. 3): 유의적으로 감소
